What was measured:
Format in all cases: cell-based
CHL-1 melanoma cells = test: Single and dual drug treatment, cell growth of CHL-1 melanoma cells; conditions: growth observed on days 7, 14, 21, 28, 35
Procedure: FIG. 11.|A drug screen was performed on CHL-1 melanoma cells. The cells were treated with DMSO (control), GDC-0973 (i.e., cobimetinib), GDC-0032 (PI3K-Alpha Inhibitor), BFJ-398 (pan FGFR inhibitor), GDC-0973 and GDC-0032, or GDC-0973 and BGJ-398.
(§1) Experiments were performed on CHL-1 melanoma cells to determine the effect of single and dual drug treatment on cell growth (FIG. 11). The cells were treated with DMSO (control), GDC-0973, GDC-0032, BGJ398, GDC-0973 and GDC-0032, or GDC-0973 and BGJ398. Cell growth was observed on days 7, 14, 21, 28, and 35, or until the cells had reached near 100% confluency. […] In contrast, cells treated with the combination treatment of GDC-0973 and GDC-0032 or the combination of GDC-0973 and BGJ398 never reached confluency through day 35.

[1] = tested on: HS 895.T normal skin fibroblast cells; test: Single and dual drug treatment, cell growth of HS 895.T normal skin fibroblast cells; conditions: growth observed on days 7, 14, 21, 28, 35
Procedure: FIG. 13.|A drug screen was performed on Hs 895.T normal skin fibroblast cells. The cells were treated with DMSO (control), GDC-0973 (i.e., cobimetinib), GDC-0032 (PI3K-Alpha Inhibitor), BFJ-398 (pan FGFR inhibitor), GDC-0973 and GDC-0032, or GDC-0973 and BGJ-398.
as §1, with “HS 895.T normal skin fibroblast” for “CHL-1 melanoma”, “13).” for “11).”, “The” for “In contrast,”, “GDC-0973, GDC-0032,” for “the combination treatment of”, “GDC-0032, and” for “GDC-0032 or the combination of”

[2] = tested on: pERK in SK MEL 24 VemR cells; test: Western blot of treated SK MEL 24 VemR cells; conditions: GDC-0973 0.5 μM, BGJ398 1 μM, 24 hours
Procedure: FIG. 14.|Single resistant SK MEL 24 VemR (SK MEL 24 cells resistant to vemurafenib) were treated with vemurafenib (i.e., PLX4032), BGJ398, and/or cobimetinib (i.e., GDC-0973). The cells were then processed and the presence/absence of FGFR1, pAKT, pMEK, pERK, PARP, pBAD, BIM, and βactin (control) were detected by Western blot. A melanoma cell line was made that is resistant to vemurafenib (“SK MEL 24 VemR”). The SK MEL 24 VemR cells were treated with vemurafenib (PLX4032), BGJ398, GDC-0973, BGJ398 and GDC-0973, vemurafenib and BGJ398, vemurafenib and GDC-0973, or vemurafenib, BGJ398, and GDC-0973. In all treatment conditions, the concentration of vemurafenib was 5 μM, the concentration of BGJ398 was 1 μM, and the concentration of GDC-0973 was 0.5 μM. The exposure time for all treatments was 24 hours. The cells were then processed and FGFR1, pAKT, pMEK, pERK, PARP, pBAD, BIM, and P-actin were probed for using Western blot.

[3] = tested on: HER2+ breast cancer cell lines; test: FGF2 rescue (drug resistance) in HER2+ breast cancer cell lines; conditions: of 10 HER2+ breast cancer cell lines
Procedure: (§2) FIG. 5A-C.| Screen of 10 melanoma cell lines and 10 breast cancer lines was performed to determine the role of FGF signalling in drug resistance. […] C, Summary of FGF receptors, their subfamily, and their ligands.
(§3) FGF signalling and resistance was studied in 10 HER2+ breast cancer cell lines and in 10 B-raf mutant melanoma cell lines (FIG. 5). 7 of the 10 HER2+ breast cancer cell lines were rescued by FGF2 (FIG. 5A). 8 of the 10 B-raf […] were rescued by FGF2 (FIG. 5B). Subsequent analysis determined that 50-70% of the melanoma lines with the V600E mutation were rescued by FGF2 (n=30).

[4] = tested on: B-raf mutant melanoma cell lines; test: FGF2 rescue (drug resistance) in B-raf mutant melanoma cell lines
Procedure: as §2, §3

[5] = tested on: HER2+ breast cancer cells; test: Immunoblot of HER2+ breast cancer cells exposed to FGF2 with or without lapatinib; conditions: FGF2 50 ng/mL for 10 minutes or 24 hours, with or without lapatinib 2 μM
Procedure: FIG. 6A-B.| FGF2 reactivates key signalling pathways to promote resistance and stimulates sustained activation of downstream signaling. A, An immunoblot of cells exposed to FGF2 for 10 min compared to cells absent exposure. B, An immunoblot of cells exposed to FGF2 for 24 hrs compared to cells absent FGF2 exposure.
Furthermore, it was determined that FGF2 reactivates key signalling pathways to promote resistance (FIG. 6). This was shown in a cell assay wherein HER2+ breast cancer cells were exposed to FGF2 (50 ng/mL) for 10 minutes in the presence or absence of lapatinib (2 μM) (FIG. 6A). Similarly, an assay was performed wherein HER2+ breast cancer cells were exposed to FGF2 (50 ng/mL) for 24 hours in the presence or absence of lapatinib (2 μM) (FIG. 6B).

melanoma cell line = test: Secreted factor screen for resistance to B-raf and MEK antagonists in melanoma cell lines
Procedure: (§4) FIG. 1A-D.| Factors secreted by tumor cells and/or the tumor microenvironment contribute to drug resistance through activation of cell-surface receptors. […] D, Secreted growth factors which promote resistance to PLX4032 reactivate MAPK and PI3K pathways. Activation of MAPK by FGF2, MAPK and AKT by HGF and AKT by NRG1 and SCF are shown in 624 MEL cells in the presence of PLX4032. Treatments were 5 μM PLX4032 for 24 hours and 50 ng·mL FGF2, HGF, NRGB1, or SCF for 10 minutes.

624 MEL cells = test: Reactivation of MAPK and PI3K pathways by secreted growth factors in presence of PLX4032; conditions: 5 μM PLX4032 24 hours, 50 ng/mL factor 10 minutes
Procedure: as §4

In the case of `CCN1CCN(c2ccc(Nc3cc(N(C)C(=O)Nc4c(Cl)c(OC)cc(OC)c4Cl)ncn3)cc2)CC1` [BGJ398, 3-(2,6-Dichloro-3,5-dimethoxy-phenyl)-1-{6-[4-(4-ethyl-piperazin-1-yl)-phenylamino]-pyrimidin-4-yl}-1-methyl-urea], the “day by which cells reached confluency” value (CHL-1 melanoma cells) is reported as no more than 14 days and the “day by which cells reached confluency” value [1] is reported as no more than 28 days.

With `Cc1nc(-c2cn3c(n2)-c2ccc(-c4cnn(C(C)(C)C(N)=O)c4)cc2OCC3)n(C(C)C)n1` [GDC-0032] the “day by which cells reached confluency” value (CHL-1 melanoma cells) was no more than 7 days.

In the case of `O=C(c1ccc(F)c(F)c1Nc1ccc(I)cc1F)N1CC(O)([C@@H]2CCCCN2)C1` [GDC-0973, [3,4-Difluoro-2-(2-fluoro-4-iodo-phenylamino)-phenyl]-((S)-3-hydroxy-3-pi-peridin-2-yl-azetidin-1-yl)-methanone], the “day by which cells reached confluency” value (CHL-1 melanoma cells) is reported as no more than 28 days and the “pERK levels (Western blot)” value [2] is reported as “lower pERK levels”.

For “FGF2: secreted growth factor, FGFR ligand, promotes resistance”, the “number of cell lines rescued by FGF2” value [3] was 7, the “number of cell lines rescued by FGF2” value ([4]; of 10 cell lines (FIG. 5B)) was 8 and the “melanoma lines with the V600E mutation rescued by FGF2” value ([4]; subsequent analysis, n=30) was 50-70%. For the same molecule, the “activation of downstream signalling” value [5] was “stimulates sustained activation of downstream signalling”, the “rescue of tumor cells from B-raf and MEK antagonists” value (melanoma cell line) was “most broadly and potently” and the “pathway activated in the presence of PLX4032” value (shortened to “pathway activated”) (624 MEL cells) was “MAPK”.

For “HGF: secreted growth factor promoting resistance to PLX4032”, the “rescue of tumor cells from B-raf and MEK antagonists” value (melanoma cell line) was “most broadly and potently” and the “pathway activated” value (624 MEL cells) was “MAPK and AKT”.

In the case of “SCF: secreted growth factor promoting resistance to PLX4032”, the “pathway activated” value (624 MEL cells) is reported as “AKT”.

From patent US20230190750A1, “METHODS OF TREATING AND PREVENTING CANCER DRUG RESISTANCE” (Genentech, Inc., priority 2014, published 2023)
